What all share (assay): NCI anticancer screen, dose series, 48 h
Assay [1] has as its system M14 melanoma.
Assay [2] has as its system HOP-62 NSCLC.
Assay [3] relates to NCI-H522 lung.
In assay [4] the test system is MDA-MB-231 breast.
For assay [5], the system named is CAKI-1 renal.
The subject of assay [6] is NCI/ADR-RES ovarian.
Assay [7] relates to LOX IMVI melanoma.
Assay [8] concerns MDA-MB-435.
In assay [9] the test system is SF-268 CNS.
For assay [10], the system named is NCI-H460 lung.

The structures appear in SMILES notation. Where “and” joins values, the source holds several entries; their conditions need not be identical. Equal entries are not always repeated.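 Where inhibition never reached the appropriate level, the endpoint shown equals the highest concentration tested. Otherwise, values were interpolated linearly from a five-concentration, 48-hour dose response in 96-well plates. Abbreviation: GI50, concentration required for 50% inhibition of growth. TGI denotes the concentration required for complete inhibition of growth.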 Where a SMILES comes first, the peptide text is derived from it. [ ]: non-standard residue; d: D form. The star is where a group is joined. NMeF = CN[C@@H](Cc1ccccc1)C(=O)O; NMeV = CN[C@H](C(=O)O)C(C)C; Boc = CC(C)(C)OC(=O)*; OBn = c1ccc(CO*)cc1

For the compound `C/C(=C\CCc1ccsc1)CC/C=C(\C)CCCN1CCC(CO)CC1`, the GI50 is 1.92 µM in assay [1]; 1.89 µM in [2]; 1.9 µM in assay [3]; 1.38 µM in [4]; 2.61 µM in [5]; 3.33 µM in assay [6]. For the same compound, the GI50 in [7] is 1.77 µM; in assay [8] it was 1.87 µM; in [9], 5.06 µM; in assay [10], 1.92 µM. Besides, the TGI amounted to 3.73 µM in [1]; 3.63 µM in assay [2]; 3.74 µM in assay [3]; 2.87 µM in [4]; 9.22 µM in assay [5]; 13.3 µM in [6]. In addition, the TGI in [7] came out at 3.27 µM; in assay [8] it was 3.87 µM; in [9], 19.4 µM; in assay [10] it was 3.85 µM.

As for `CC(C)[C@@H](C(=O)N1CCC[C@H]1C(=O)OCc1ccccc1)N(C)C(=O)[C@H](C(C)C)N(C)C(=O)[C@H](Cc1ccccc1)N(C)C(=O)[C@H](NC(=O)OC(C)(C)C)C(C)C` (Boc-[dV][NMeF][NMeV][NMeV]P-OBn), the GI50 is 41.7 µM in assay [1]; over 100 µM in [5]; 12.9 µM in assay [7]; over 100 µM in assay [9]; 17.5 µM in assay [10]. The TGI in assay [1] is over 100 µM; in assay [2], over 100 µM; in assay [3], over 50 µM; in assay [4] it was over 50 µM; in assay [5] it was over 100 µM; in [6] it was over 50 µM. Besides, the TGI in assay [7] is > 50 µM and 26.6 µM; in [8], over 50 µM; in [9] it was over 100 µM; in assay [10], over 100 µM.

For `COc1cc(/C=C2\C(=O)N(c3ccccc3)c3ccccc32)cc(OC)c1OC`, the GI50 in [1] was 11.3 µM; in assay [2], 15 µM; in assay [3], 6.31 µM; in assay [4] it was 4.12 µM; in [5], 12.5 µM; in assay [6], 6.37 µM. Moreover, the GI50 in assay [7] is 2.24 µM; in assay [8], 5.85 µM; in assay [9] it was 4.32 µM; in [10], 3.82 µM. For the same compound, the TGI was determined as 26.9 µM in assay [1]; 31.5 µM in assay [2]; 23.3 µM in assay [3]; 26.1 µM in assay [4]; 61.3 µM in assay [5]; 27.1 µM in [6]. Besides, the TGI in assay [7] is 4.61 µM; in assay [8], 36.6 µM; in assay [9] it was 15.3 µM; in assay [10] it was over 100 µM.

As for `O=C1NC(c2c(Cl)cccc2Cl)Nc2ccccc21` (stereo not given), the TGI in [1] is over 100 µM; in assay [2], over 100 µM; in [3], over 100 µM; in assay [4], over 100 µM; in assay [5], 76.7 µM; in assay [6] it was over 100 µM. In addition, the TGI was over 100 µM in [7], 33 µM in assay [8], over 100 µM in assay [9] and over 100 µM in assay [10].

Turning to `COc1ccc(CCN2CCC(Nc3nc4ccccc4n3Cc3ccc(F)cc3)CC2)cc1`, the GI50 in assay [1] was 1.72 µM; in assay [2], 1.72 µM; in assay [3], 2.37 µM; in assay [4], 1.45 µM; in [5], 1.52 µM; in [6] it was 1.59 µM. For the same compound, the GI50 in assay [7] was 1.38 µM; in [8], 1.5 µM; in assay [9] it was 1.56 µM; in assay [10], 2.67 µM. For the same compound, the TGI was 3.15 µM in assay [1]; 3.15 µM in assay [2]; 4.91 µM in assay [3]; 2.88 µM in assay [4]; 3.24 µM in assay [5]; 3.32 µM in assay [6]. Also, the TGI in [7] stood at 2.79 µM; in assay [8], 3 µM; in assay [9], 2.95 µM; in [10], 9.54 µM.

With `N=c1n(Cc2ccccc2)c(N)cc(=O)n1Cc1ccccc1`, the GI50 was 4.72 µM in assay [1]; 1.35 µM in assay [2]; 0.503 µM in assay [3]; 7.45 µM in assay [4]; 2.94 µM in assay [5]; 2.33 µM in assay [6]. For the same compound, the GI50 was 3.14 µM in assay [7], 3.54 µM in [8], 1.37 µM in [9] and 1.08 µM in [10]. Moreover, the TGI in assay [1] was 17.8 µM; in [2], 2.68 µM; in assay [3], 2.42 µM; in assay [4] it was 42.5 µM; in assay [5] it was 16.6 µM; in assay [6] it was 5.71 µM. Further, the TGI is 10.9 µM in assay [7], 13.8 µM in [8], 3.86 µM in assay [9] and 2.75 µM in assay [10].

In the case of `OCC1OC2OC3C(CO)OC(OC4C(CO)OC(OC5C(CO)OC(OC6C(CO)OC(OC7C(CO)OC(OC1C(O)C2O)C(O)C7O)C(O)C6O)C(O)C5O)C(O)C4O)C(O)C3O` (stereo not given) (tested in a mixture with another compound), the TGI in assay [1] was over 100 µM; in assay [2], over 100 µM; in [3], over 100 µM; in [4], over 100 µM; in assay [5], over 100 µM; in [6], over 96.1 µM. Moreover, the TGI in assay [7] is over 100 µM; in assay [8] it was 40.7 µM; in assay [9] it was over 100 µM; in assay [10], over 100 µM.

Consider `CCC(c1ccc2cc(O)ccc2c1)C(C)(C)C(=O)O` (stereo not given), for which the TGI in assay [1], in assay [2], in assay [3], in assay [4], in [5] and in assay [6] was over 100 µM each time. Besides, the TGI in assay [7], in assay [8], in [9] and in assay [10] was over 100 µM in each case.
